Active and inactive are the calls of the source. How the calls were made is not given here.

The text below walks through data of PubChem BioAssay AID504322 (Emory University Molecular Libraries Screening Center, 2011).

The subject of the experiment is CHOP reporter cell assay, percent of control. The experiment can be described thus: CHOP reporter inhibitor potency, dose response, cell-based (AID 504322).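 Further: CHO cells carrying a CHOP reporter stimulated with tunicamycin to induce ER stress; potency is for inhibition of the stress-induced reporter signal.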

As usually defined, the IC50 is the concentration that inhibits the measured activity by half. Take `CCOC(=O)c1c(N)sc(C(O)(C(F)(F)F)C(F)(F)F)c1-c1ccc(Cl)cc1`: the IC50 is 9.37 µM (inactive).
In the case of `Cc1ccc(C(C(=O)NCc2ccco2)N(C(=O)CNC(=O)c2cccs2)c2c(C)cccc2C)cc1` (centres undefined), the IC50 is > 10 µM (inactive).
Regarding `O=C(Nc1cccc(F)c1)N(Cc1ccc(Cl)cc1)CC(O)C(F)(F)F` (centres undefined), the IC50 is 3.58 µM.
For `CCN(CCO)c1ncnc2c1sc1nc(CC(C)C)c3c(c12)CC(C)(C)OC3` the value was 9.11 µM (inactive).
For `Cc1ccc(NC(=O)c2nc[nH]c2C(=O)N[C@@H](C)C(=O)OC(C)(C)C)cc1` the value was 5.12 µM (inactive); for `CCOC(=O)c1ccc(NC(=O)c2nc[nH]c2C(=O)N[C@@H](C)C(=O)OC(C)(C)C)cc1`, 5.92 µM (inactive); for `COC(=O)c1ccc2c(c1)C(C)(C)C(/C=C/c1ccccc1O)=[N+]2C`, > 10 µM (inactive).
In the case of `CN1/C(=C\C=C\C2=[N+](C)c3ccc4ccccc4c3C2(C)C)C(C)(C)c2ccccc21`, the IC50 was 0.41 µM (inactive).
For `C=CCc1cc(C)ccc1OCC(O)CN1CCN(c2ccccc2)CC1` (centres undefined) the value was 3.94 µM (inactive); for `CC1CCCC(NC(=O)COC(=O)/C=C/c2ccc3c(c2)OCO3)C1C` (centres undefined), > 10 µM (inactive); for `COc1ccc(C(CCNCc2ccc(F)cc2)c2ccc(F)cc2)cc1` (centres undefined), 9.74 µM (inactive).
For `CCN=C1NN=C(c2cc(C)n(Cc3ccco3)c2C)CS1` the value was below 0.16 µM; for `CN(C)CCCn1c(SCC(=O)Nc2nc(-c3cccc(Br)c3)cs2)nc2ccccc2c1=O`, 9.51 µM (inactive); for `O=C1C(=C2SCCCS2)CC/C1=C\c1ccc(F)cc1`, 4.38 µM (inactive).
Consider `COc1ccc(OCc2cccc(C(=O)Nn3cc([N+](=O)[O-])cn3)c2)cc1`, for which the IC50 was 0.85 µM.
For `COc1ccccc1-n1cc([C@@H]2C[C@H]3CN(c4ccccc4)C(=O)[C@]34CCCN24)cn1` the value was 1.89 µM.
For `C=CCn1c(C)cc(C2=NNC(=NCC)SC2)c1C` the value was below 0.16 µM.
For `CSc1nc(-c2ccccc2)nc(C(Cl)Cl)n1` the value was 5.1 µM.
`CCCCn1c(N2CCC(Cc3ccccc3)CC2)nc2c1c(=O)[nH]c(=O)n2C`: the IC50 is 6.06 µM (inactive).
With `NC(=O)CC(NC(=O)Cc1cccc2ccccc12)c1ccc(NCCOc2ccccc2)c([N+](=O)[O-])c1` (centres undefined), the IC50 was 8.33 µM (inactive).
For `CN1CCN(CC(=O)N2CCn3c4c(c5cc(C6CCCCC6)ccc53)CCCC42)CC1` (centres undefined) the value was 9.6 µM (inactive); for `C/C(N)=C(/C#N)C(=O)COC(=O)C1CCC(C(C)(C)C)CC1` (centres undefined), 2.41 µM.
For `Clc1nssc1=Nc1ccc(Br)cc1` the value was 6.25 µM (inactive); for `O=C(CSc1ncnc2[nH]ncc12)Nc1nc(-c2ccc(F)c(F)c2)cs1`, 6.98 µM (inactive); for `O=S(=O)(N/N=C/c1ccc(Cl)cc1)c1ccc(Cc2ncc(C(F)(F)F)cc2Cl)s1`, 6.37 µM (inactive).
For `O=C(Nc1nccs1)c1cc2c(s1)CCCCC2` the value was > 10 µM (inactive); for `C=CCSc1n[nH]c(-c2ccc(OCCCC)cc2)n1`, > 10 µM (inactive); for `CCCOc1ccc(Cc2c(Cl)nc(SC)nc2NC)cc1`, 8.18 µM (inactive).
`O=C(NCCNC(=O)c1cc(OCC(F)(F)F)ccc1OCC(F)(F)F)Nc1cccc(C(F)(F)F)c1`: the IC50 was 2.57 µM.
For `Cc1sc(NC(=O)c2cccc([N+](=O)[O-])c2)c(C(N)=O)c1-c1ccc(C(C)(C)C)cc1` the value was > 10 µM (inactive); for `C[C@H](NC(=O)c1[nH]cnc1C(=O)Nc1ccc(Cl)cc1)C(=O)OC(C)(C)C`, 5.47 µM (inactive).
For `CC1=NNC(=O)/C1=C\c1cn(-c2ccccc2)nc1-c1ccc(F)cc1` the value was 9.5 µM (inactive); for `Cc1cccc(N=Nc2c(N)n[nH]c2-c2ccc(Cl)cc2)c1`, 9.41 µM (inactive).
With `FC(F)(F)c1cccc(Sc2nc(-c3ccccc3)nnc2C(F)(F)F)c1`, the IC50 is 9.58 µM (inactive).
For `Cc1ccc(/C=C2\SC(=S)N(CCCC(=O)Nc3ccccn3)C2=O)cc1` the value was 0.42 µM.
For `O=C(N/N=C/c1cccs1)c1cccc(NC(=O)c2ccc(Cl)cc2)c1` the value was 4.15 µM; for `CN(C)c1ccc(/C=C2\SC(=O)N(CCc3nnc(N)s3)C2=O)cc1`, 9.8 µM (inactive); for `Cn1cnc([N+](=O)[O-])c1S(=O)(=O)c1ccc(Cl)cc1`, 7.04 µM (inactive).
For `Cn1c2ccccc2c(=O)c2c(=O)n(C3CCCCCC3)c(C3CCCCC3)nc21` the value was 9.65 µM (inactive).
In the case of `CC1CCc2cc(F)ccc2N1C(=O)CSc1nnc2c(n1)[nH]c1ccc(F)cc12` (centres undefined), the IC50 was 9.19 µM (inactive).
For `COCCn1cnc2c(c1=O)c1nc3ccccc3nc1n2/N=C/c1cccc(OC)c1` the value was 8.74 µM (inactive).
For `NC(=S)n1[nH]c(-c2ccc([N+](=O)[O-])cc2)c(N=Nc2ccc(Cl)cc2)c1=O` the value was 5.74 µM (inactive); for `O=C(Cn1c(C(F)(F)F)nc2ccccc21)N=Nc1c(O)[nH]c2ccc(Br)cc12`, > 10 µM (inactive); for `CCC(C)(C)c1ccc(Oc2ccc(N)cc2)cc1`, below 0.16 µM.
For `CC(C)(C)c1ccc(C(O)CCCN2CCC(C(O)(c3ccccc3)c3ccccc3)CC2)cc1` (centres undefined) the value was 4.12 µM (inactive).
`O=C(N/N=C/c1cccc(F)c1)c1c(O)c2ccccc2[nH]c1=O`: the IC50 is 6.48 µM (inactive).
For `CCSc1nc2ccccc2n1C(=O)/C=C\c1ccc(OC)c(OC)c1` the value was 4.06 µM.
On to `S=C(NCCc1ccc(Cl)cc1)Nc1ccc(Cl)cc1Cl`, for which the IC50 was 9.93 µM (inactive).
In the case of `CCOC(=O)c1c(/N=C/c2c(O)n(-c3cccc(C)c3)c(=O)[nH]c2=O)sc2c1CCCC2`, the IC50 was 2.39 µM.
For `CC(C)Cn1c2c(c(=O)[nH]c1=O)C(C(F)(F)F)(C(F)(F)F)N=C(CCC1CCCCC1)N2` the value was 2.37 µM; for `Cc1ccc(C(=O)N/C(=C\c2ccc(Br)cc2)c2nc(=S)[nH][nH]2)cc1`, 9.7 µM (inactive).
For `CCc1ccc(NP(=O)(Oc2ccccc2F)Oc2ccccc2F)cc1` the value was 9.66 µM (inactive); for `CC1CCN(c2nc3ccc(C(=O)O)cc3s2)CC1`, 0.71 µM; for `OC(CNCC(c1ccc(Cl)cc1Cl)c1c[nH]c2ccccc12)c1ccccc1` (centres undefined), 1.79 µM.
For `O=C(Nc1ccc([N+](=O)[O-])cc1)Nc1nc(-c2ccc(Cl)s2)cs1` the value was 2.28 µM; for `CC1CCCC(NCC(O)COC(c2ccc(F)cc2)c2ccc(F)cc2)C1C` (centres undefined), 9.43 µM (inactive); for `C#CC(=O)N(c1ccc(OC)c(OC)c1)C(C(=O)NC1CCCC1)c1cccs1` (centres undefined), 5.28 µM (inactive).
Turning to `Cn1c(=O)c(C(=O)Nc2ncccc2O)c(O)c2ccccc21`, the IC50 was 9.46 µM (inactive).
For `CC[n+]1c(/C=C2\Sc3ccccc3N2C)ccc2cccc(C)c21` the value was > 10 µM (inactive); for `CCCCn1c(NS(=O)(=O)c2ccc(C)cc2)c(S(=O)(=O)c2ccccc2)c2nc3ccccc3nc21`, > 10 µM (inactive).
For `Cc1ccccc1OCc1n(CC(=O)OC2CC(C)CCC2C(C)C)c2ccccc2[n+]1C` (centres undefined) the value was > 10 µM (inactive); for `CCc1cc(-c2n[nH]c(C)c2Oc2ccc(C(C)C)cc2)c(O)cc1O`, 7.24 µM (inactive); for `CCCCCn1c(SCCC(C)C)nc2c1c(=O)[nH]c(=O)n2C`, 6.85 µM (inactive).
For `O=C1C(=O)c2ccc(-c3ccccc3)cc2-c2ccccc21` the value was 3.36 µM.
On to `CCCCCCn1c(N2CCC(C)CC2)nc2c1c(=O)[nH]c(=O)n2C`, for which the IC50 was 5.4 µM (inactive).
For `CCOc1ccc(-c2nc(CSCC(=O)NCc3ccco3)c(C)o2)cc1` the value was below 0.16 µM; for `O=C(CN1C(=O)c2ccccc2S1(=O)=O)c1ccc2c(c1)OCCCO2`, 0.34 µM (inactive).
For `C=C(C=O)CC1CC(O)[C@]2(C)OC3CC4OC5C[C@]6(C)O[C@]7(C)CCC8OC9C[C@]%10(C)OC%11C(C)=CC(=O)OC%11CC%10OC9C[C@@H](C)C8OC7CC6O[C@]5(C)CC5OC5C4OC3CC2O1` (some centres undefined) the value was 0.82 µM.
For `COc1ccc(C(C(=O)NC2CCCCC2)N(C(=O)CCl)c2cccc(Cl)c2)cc1` (centres undefined) the value was 9.57 µM (inactive).
Turning to `Cc1nc2ccccn2c1C(=O)N=Nc1c(O)n(CCC(C)C)c2ccccc12`, the IC50 was > 10 µM (inactive).
For `Cc1cccc(N2CCN(C(=O)CS(=O)(=O)Cc3nc(-c4ccccc4F)oc3C)CC2C)c1` (centres undefined) the value was > 10 µM (inactive).
For `C/C(=C\c1ccco1)C1C(C#N)=C(N)Oc2n[nH]c(-c3ccc(C)cc3)c21` (centres undefined) the value was > 10 µM (inactive).
Turning to `CC(C)C[C@H](NC(=O)OC(C)(C)C)c1nnc(SCC(=O)Nc2ccc(Br)cc2)o1`, the IC50 is 5.57 µM (inactive).
For `CCOC(=O)c1cnc(-n2nc(C)cc2C)nc1Nc1ccc(O)cc1` the value was 1.51 µM.
For `COc1ccc(CC2(CO)CCN(CC3=Cc4cc(Cl)ccc4OC3)CC2)cc1` the value was 0.87 µM (inactive); for `CC(C)C[C@H](NC(=O)c1[nH]cnc1C(=O)N[C@@H](C)C(=O)OC(C)(C)C)C(=O)OC(C)(C)C`, 3.69 µM (inactive).
For `Cc1ccc(C2=NN(C(=O)c3cccs3)C(c3ccccc3O)C2)cc1` (centres undefined) the value was 9.38 µM (inactive); for `OCCCNc1cc(-c2ccnc(Nc3cccc(Cl)c3)n2)ccn1`, below 0.16 µM.
For the compound `CC(C)(C)c1ccc(C2CC2C(=O)N/N=C\c2ccc[nH]2)cc1` (centres undefined), the IC50 was 4.18 µM (inactive).
For `O=C(Nc1ccc(S(=O)(=O)N2CCOCC2)cc1)c1ccc(CN2CCc3ccccc3C2)cc1` the value was below 0.16 µM; for `Cc1nc(Nc2nc(CSc3nc4ccccc4[nH]3)cc(=O)[nH]2)nc2ccccc12`, 5.68 µM (inactive).
For `O=[N+]([O-])c1ccc(S(=O)(=O)CC(CN2CCCCC2)N2CCCCC2)cc1` (centres undefined) the value was 5.93 µM (inactive); for `CCCCCc1ccc(OCCOCCn2c[n+](C)c3ccccc32)c(CCCCC)c1`, 3.52 µM; for `Nc1nnnn1/N=C/C(Br)=C/c1ccccc1`, 9.72 µM (inactive).
